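Dose response: 5 concentrations. Exposure: 48 h. Format: 96-well plates. Endpoint: linear interpolation; highest concentration if not reached. TGI: concentration producing complete growth inhibition.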
These molecules were tested on M14 melanoma (assay: growth of human tumour cells (NCI), 48 h).

SMILES | TGI
C=C1C(=O)C[C@H]2C(=C)C(=O)O[C@@H]2C2C1CC[C@@]2(C)O (stereo partly drawn) | 33.5 µM
O=C(NC(Cc1c[nH]c2ccccc12)C(=O)Nc1ccc(Br)cc1)OCc1ccccc1 (stereo not drawn) | 27.6 µM
COC(=O)C1=C(C)NC2=C(C(=O)c3ccccc32)C1c1cn(-c2ccccc2)nc1-c1ccccc1 (stereo not drawn) | > 100 µM
Cc1cc(C)n2nc3nc(N)c(C#N)c(-c4ccccc4)c3c2n1 | > 100 µM
CCCCCCCCCC1(N=[N+]=[N-])C(=O)c2ccccc2N(C)C1=O (stereo not drawn) | 64.6 µM
CN(Cc1cnc2nc(N)nc(N)c2n1)c1ccc(C(=O)NC(CCC(=O)NCCC(P(=O)(O)O)P(=O)(O)O)C(=O)O)cc1 (stereo not drawn) | > 100 µM
C[N+](CCCl)(CCCl)Cc1cccc2cccc([N+](=O)[O-])c12 | > 100 µM
O=C1NC(=O)C(c2c[nH]c3ccccc23)=C1c1cnc[nH]1 | > 100 µM
CC(=O)O[C@H]1C[C@H]2[C@@H](OC(C)=O)/C=C3\C[C@](C)(C(=O)[C@H](O)C(=C1C)C2(C)C)[C@@H](O)C[C@@H]3OC(=O)[C@H](O)[C@H](c1ccccc1)N(C)C | > 100 µM
Nc1ncnc2c1ccn2C/C=C\CO | > 100 µM
Cc1c([N+](=O)[O-])ccc2c(NCCCN(C)C)ccnc12 | 29.9 µM
N#Cc1nc2ccccc2nc1N1CCN(c2ccc([N+](=O)[O-])cc2)CC1 | > 100 µM
N=C1/C(=C/c2ccc(F)cc2)C(=O)N=C2SC=NN12 | > 100 µM
COC(=O)CC(C#N)(OP1(=O)OC(c2ccccc2)C(C)N1C)c1ccccc1 (stereo not drawn) | > 100 µM
CN1CCN(C(=O)CCNC(=O)Cc2ccc(C(=O)c3ccccc3)cc2)CC1 | > 100 µM
CC(=O)c1cccc(NC(=O)C(=O)NNc2n[nH]c(=S)n2N)c1 | 6.15 µM
O=c1cc(N2CCOCC2)[nH]c(=O)n1-c1ccc(F)cc1 | > 100 µM
O=C(O)CC1NC(/C(=C/c2ccccc2)NC(=O)c2ccccc2)OC1=O (stereo not drawn) | 35.2 µM
COCC1OC(Sc2ccccc2)C(O)C(OC)C1OC (stereo not drawn) | > 100 µM
CCCn1c2ccccc2c2ccc3c(c21)C(=O)C=CC3=O | > 6.11 µM
C=C(CCC/C(C)=C/C=C/[C@]1(C)CCCc2ccoc21)CC(=O)O | > 100 µM
O=C1C2CC=CCC2C(=O)N1n1c(Cc2ccc(Cl)cc2)n[nH]c1=O (stereo not drawn) | > 100 µM
N#Cc1c(-c2ccc(Cl)cc2)c2c([nH]c1=O)-c1ccccc1SC2 | > 100 µM

The molecules below were run on SF-268 CNS (assay: growth of human tumour cells (NCI), 48 h).

SMILES | TGI
C=C1C(=O)C[C@H]2C(=C)C(=O)O[C@@H]2C2C1CC[C@@]2(C)O (stereo partly drawn) | > 100 µM
O=C(NC(Cc1c[nH]c2ccccc12)C(=O)Nc1ccc(Br)cc1)OCc1ccccc1 (stereo not drawn) | 37.7 µM
COC(=O)C1=C(C)NC2=C(C(=O)c3ccccc32)C1c1cn(-c2ccccc2)nc1-c1ccccc1 (stereo not drawn) | > 100 µM
Cc1cc(C)n2nc3nc(N)c(C#N)c(-c4ccccc4)c3c2n1 | > 100 µM
CCCCCCCCCC1(N=[N+]=[N-])C(=O)c2ccccc2N(C)C1=O (stereo not drawn) | > 100 µM
CN(Cc1cnc2nc(N)nc(N)c2n1)c1ccc(C(=O)NC(CCC(=O)NCCC(P(=O)(O)O)P(=O)(O)O)C(=O)O)cc1 (stereo not drawn) | > 100 µM
C[N+](CCCl)(CCCl)Cc1cccc2cccc([N+](=O)[O-])c12 | > 100 µM
O=C1NC(=O)C(c2c[nH]c3ccccc23)=C1c1cnc[nH]1 | > 100 µM
CC(=O)O[C@H]1C[C@H]2[C@@H](OC(C)=O)/C=C3\C[C@](C)(C(=O)[C@H](O)C(=C1C)C2(C)C)[C@@H](O)C[C@@H]3OC(=O)[C@H](O)[C@H](c1ccccc1)N(C)C | > 100 µM
Nc1ncnc2c1ccn2C/C=C\CO | > 100 µM
Cc1c([N+](=O)[O-])ccc2c(NCCCN(C)C)ccnc12 | > 100 µM
N#Cc1nc2ccccc2nc1N1CCN(c2ccc([N+](=O)[O-])cc2)CC1 | > 100 µM
N=C1/C(=C/c2ccc(F)cc2)C(=O)N=C2SC=NN12 | > 100 µM
COC(=O)CC(C#N)(OP1(=O)OC(c2ccccc2)C(C)N1C)c1ccccc1 (stereo not drawn) | > 100 µM
CN1CCN(C(=O)CCNC(=O)Cc2ccc(C(=O)c3ccccc3)cc2)CC1 | > 100 µM
CC(=O)c1cccc(NC(=O)C(=O)NNc2n[nH]c(=S)n2N)c1 | 27.7 µM
O=c1cc(N2CCOCC2)[nH]c(=O)n1-c1ccc(F)cc1 | > 100 µM
O=C(O)CC1NC(/C(=C/c2ccccc2)NC(=O)c2ccccc2)OC1=O (stereo not drawn) | > 100 µM
COCC1OC(Sc2ccccc2)C(O)C(OC)C1OC (stereo not drawn) | > 100 µM
CCCn1c2ccccc2c2ccc3c(c21)C(=O)C=CC3=O | > 10 µM
C=C(CCC/C(C)=C/C=C/[C@]1(C)CCCc2ccoc21)CC(=O)O | > 100 µM
O=C1C2CC=CCC2C(=O)N1n1c(Cc2ccc(Cl)cc2)n[nH]c1=O (stereo not drawn) | > 100 µM
N#Cc1c(-c2ccc(Cl)cc2)c2c([nH]c1=O)-c1ccccc1SC2 | > 100 µM

These molecules were tested on SF-295 CNS (assay: growth of human tumour cells (NCI), 48 h).

SMILES | TGI
C=C1C(=O)C[C@H]2C(=C)C(=O)O[C@@H]2C2C1CC[C@@]2(C)O (stereo partly drawn) | > 100 µM
O=C(NC(Cc1c[nH]c2ccccc12)C(=O)Nc1ccc(Br)cc1)OCc1ccccc1 (stereo not drawn) | 23.9 µM
COC(=O)C1=C(C)NC2=C(C(=O)c3ccccc32)C1c1cn(-c2ccccc2)nc1-c1ccccc1 (stereo not drawn) | > 100 µM
Cc1cc(C)n2nc3nc(N)c(C#N)c(-c4ccccc4)c3c2n1 | > 100 µM
CCCCCCCCCC1(N=[N+]=[N-])C(=O)c2ccccc2N(C)C1=O (stereo not drawn) | > 100 µM
CN(Cc1cnc2nc(N)nc(N)c2n1)c1ccc(C(=O)NC(CCC(=O)NCCC(P(=O)(O)O)P(=O)(O)O)C(=O)O)cc1 (stereo not drawn) | > 100 µM
C[N+](CCCl)(CCCl)Cc1cccc2cccc([N+](=O)[O-])c12 | > 100 µM
O=C1NC(=O)C(c2c[nH]c3ccccc23)=C1c1cnc[nH]1 | > 100 µM
CC(=O)O[C@H]1C[C@H]2[C@@H](OC(C)=O)/C=C3\C[C@](C)(C(=O)[C@H](O)C(=C1C)C2(C)C)[C@@H](O)C[C@@H]3OC(=O)[C@H](O)[C@H](c1ccccc1)N(C)C | > 100 µM
Nc1ncnc2c1ccn2C/C=C\CO | > 100 µM
Cc1c([N+](=O)[O-])ccc2c(NCCCN(C)C)ccnc12 | 60.4 µM
N#Cc1nc2ccccc2nc1N1CCN(c2ccc([N+](=O)[O-])cc2)CC1 | > 100 µM
N=C1/C(=C/c2ccc(F)cc2)C(=O)N=C2SC=NN12 | > 100 µM
COC(=O)CC(C#N)(OP1(=O)OC(c2ccccc2)C(C)N1C)c1ccccc1 (stereo not drawn) | > 100 µM
CN1CCN(C(=O)CCNC(=O)Cc2ccc(C(=O)c3ccccc3)cc2)CC1 | > 100 µM
CC(=O)c1cccc(NC(=O)C(=O)NNc2n[nH]c(=S)n2N)c1 | 16.9 µM
O=c1cc(N2CCOCC2)[nH]c(=O)n1-c1ccc(F)cc1 | > 100 µM
O=C(O)CC1NC(/C(=C/c2ccccc2)NC(=O)c2ccccc2)OC1=O (stereo not drawn) | > 100 µM
COCC1OC(Sc2ccccc2)C(O)C(OC)C1OC (stereo not drawn) | > 100 µM
CCCn1c2ccccc2c2ccc3c(c21)C(=O)C=CC3=O | > 10 µM
C=C(CCC/C(C)=C/C=C/[C@]1(C)CCCc2ccoc21)CC(=O)O | > 100 µM
O=C1C2CC=CCC2C(=O)N1n1c(Cc2ccc(Cl)cc2)n[nH]c1=O (stereo not drawn) | > 100 µM
N#Cc1c(-c2ccc(Cl)cc2)c2c([nH]c1=O)-c1ccccc1SC2 | > 100 µM

Each molecule was assayed on SK-OV-3 ovarian (assay: growth of human tumour cells (NCI), 48 h).

SMILES | TGI
C=C1C(=O)C[C@H]2C(=C)C(=O)O[C@@H]2C2C1CC[C@@]2(C)O (stereo partly drawn) | > 100 µM
O=C(NC(Cc1c[nH]c2ccccc12)C(=O)Nc1ccc(Br)cc1)OCc1ccccc1 (stereo not drawn) | 46.3 µM
COC(=O)C1=C(C)NC2=C(C(=O)c3ccccc32)C1c1cn(-c2ccccc2)nc1-c1ccccc1 (stereo not drawn) | > 100 µM
Cc1cc(C)n2nc3nc(N)c(C#N)c(-c4ccccc4)c3c2n1 | > 100 µM
CCCCCCCCCC1(N=[N+]=[N-])C(=O)c2ccccc2N(C)C1=O (stereo not drawn) | > 100 µM
CN(Cc1cnc2nc(N)nc(N)c2n1)c1ccc(C(=O)NC(CCC(=O)NCCC(P(=O)(O)O)P(=O)(O)O)C(=O)O)cc1 (stereo not drawn) | > 100 µM
C[N+](CCCl)(CCCl)Cc1cccc2cccc([N+](=O)[O-])c12 | > 100 µM
O=C1NC(=O)C(c2c[nH]c3ccccc23)=C1c1cnc[nH]1 | > 100 µM
CC(=O)O[C@H]1C[C@H]2[C@@H](OC(C)=O)/C=C3\C[C@](C)(C(=O)[C@H](O)C(=C1C)C2(C)C)[C@@H](O)C[C@@H]3OC(=O)[C@H](O)[C@H](c1ccccc1)N(C)C | > 100 µM
Nc1ncnc2c1ccn2C/C=C\CO | > 100 µM
Cc1c([N+](=O)[O-])ccc2c(NCCCN(C)C)ccnc12 | > 100 µM
N#Cc1nc2ccccc2nc1N1CCN(c2ccc([N+](=O)[O-])cc2)CC1 | > 100 µM
N=C1/C(=C/c2ccc(F)cc2)C(=O)N=C2SC=NN12 | > 100 µM
COC(=O)CC(C#N)(OP1(=O)OC(c2ccccc2)C(C)N1C)c1ccccc1 (stereo not drawn) | > 100 µM
CN1CCN(C(=O)CCNC(=O)Cc2ccc(C(=O)c3ccccc3)cc2)CC1 | > 100 µM
CC(=O)c1cccc(NC(=O)C(=O)NNc2n[nH]c(=S)n2N)c1 | 43.1 µM
O=c1cc(N2CCOCC2)[nH]c(=O)n1-c1ccc(F)cc1 | > 100 µM
O=C(O)CC1NC(/C(=C/c2ccccc2)NC(=O)c2ccccc2)OC1=O (stereo not drawn) | > 100 µM
COCC1OC(Sc2ccccc2)C(O)C(OC)C1OC (stereo not drawn) | > 100 µM
CCCn1c2ccccc2c2ccc3c(c21)C(=O)C=CC3=O | > 10 µM
C=C(CCC/C(C)=C/C=C/[C@]1(C)CCCc2ccoc21)CC(=O)O | > 100 µM
O=C1C2CC=CCC2C(=O)N1n1c(Cc2ccc(Cl)cc2)n[nH]c1=O (stereo not drawn) | > 100 µM
N#Cc1c(-c2ccc(Cl)cc2)c2c([nH]c1=O)-c1ccccc1SC2 | > 100 µM

What follows are molecules tested on SN12C renal (assay: growth of human tumour cells (NCI), 48 h).

SMILES | TGI
C=C1C(=O)C[C@H]2C(=C)C(=O)O[C@@H]2C2C1CC[C@@]2(C)O (stereo partly drawn) | > 100 µM
O=C(NC(Cc1c[nH]c2ccccc12)C(=O)Nc1ccc(Br)cc1)OCc1ccccc1 (stereo not drawn) | 22.5 µM
COC(=O)C1=C(C)NC2=C(C(=O)c3ccccc32)C1c1cn(-c2ccccc2)nc1-c1ccccc1 (stereo not drawn) | > 100 µM
Cc1cc(C)n2nc3nc(N)c(C#N)c(-c4ccccc4)c3c2n1 | > 100 µM
CCCCCCCCCC1(N=[N+]=[N-])C(=O)c2ccccc2N(C)C1=O (stereo not drawn) | 57.8 µM
CN(Cc1cnc2nc(N)nc(N)c2n1)c1ccc(C(=O)NC(CCC(=O)NCCC(P(=O)(O)O)P(=O)(O)O)C(=O)O)cc1 (stereo not drawn) | > 100 µM
C[N+](CCCl)(CCCl)Cc1cccc2cccc([N+](=O)[O-])c12 | > 100 µM
O=C1NC(=O)C(c2c[nH]c3ccccc23)=C1c1cnc[nH]1 | > 100 µM
CC(=O)O[C@H]1C[C@H]2[C@@H](OC(C)=O)/C=C3\C[C@](C)(C(=O)[C@H](O)C(=C1C)C2(C)C)[C@@H](O)C[C@@H]3OC(=O)[C@H](O)[C@H](c1ccccc1)N(C)C | > 100 µM
Nc1ncnc2c1ccn2C/C=C\CO | > 100 µM
Cc1c([N+](=O)[O-])ccc2c(NCCCN(C)C)ccnc12 | > 100 µM
N#Cc1nc2ccccc2nc1N1CCN(c2ccc([N+](=O)[O-])cc2)CC1 | > 100 µM
N=C1/C(=C/c2ccc(F)cc2)C(=O)N=C2SC=NN12 | > 100 µM
COC(=O)CC(C#N)(OP1(=O)OC(c2ccccc2)C(C)N1C)c1ccccc1 (stereo not drawn) | 77 µM
CN1CCN(C(=O)CCNC(=O)Cc2ccc(C(=O)c3ccccc3)cc2)CC1 | > 100 µM
CC(=O)c1cccc(NC(=O)C(=O)NNc2n[nH]c(=S)n2N)c1 | 20.3 µM
O=c1cc(N2CCOCC2)[nH]c(=O)n1-c1ccc(F)cc1 | > 100 µM
O=C(O)CC1NC(/C(=C/c2ccccc2)NC(=O)c2ccccc2)OC1=O (stereo not drawn) | > 100 µM
COCC1OC(Sc2ccccc2)C(O)C(OC)C1OC (stereo not drawn) | > 100 µM
CCCn1c2ccccc2c2ccc3c(c21)C(=O)C=CC3=O | > 7.53 µM
C=C(CCC/C(C)=C/C=C/[C@]1(C)CCCc2ccoc21)CC(=O)O | > 100 µM

From PubChem BioAssay (NCI)
